Assays:
lambsquarters = assay: Test B preemergence/postemergence greenhouse plant response rating 0 to 10; format: in vivo, Chenopodium album; settings: 0 to 10 scale
Procedure, shortened: (§1)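 Planted seeds are treated preemergence with compound dissolved in a non-phytotoxic solvent, while postemergence applications go onto plants of two to eighteen cm. Plants stay in the greenhouse twelve to sixteen days and are then rated visually relative to controls.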

sorghum [1] = assay: Test C preemergence/postemergence greenhouse plant response rating 0 to 100; format: in vivo, Sorghum bicolor; settings: POSTEMERGENCE; for Plant response rating, Sorghum: 0 to 100 scale
Procedure, shortened: (§2)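 Compounds in non-phytotoxic solvent went onto sandy loam before emergence (seeded one day earlier) or onto plants at the one-to-four leaf stage. Duck salad was treated via flood water (~2.5 cm, maintained) over silt loam.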

barnyardgrass = assay: Test C flood test plant response rating 0 to 100; format: in vivo, Echinochloa crus-galli; settings: for Plant response rating (0 to 100), Barnyardgrass: under POSTEMERGENCE head (flood test species); for Plant response rating, Barnyardgrass: flood test species listed under POSTEMERGENCE, 0 to 100 scale
Procedure, shortened: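 Compounds in non-phytotoxic solvent applied preemergence to sandy loam one day after planting, postemergence at the 1–4 leaf stage, or to ~2.5 cm floodwater over silt loam.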

cotton = assay: Test B preemergence/postemergence greenhouse plant response rating 0 to 10; format: in vivo, Gossypium hirsutum; settings: 0 to 10 scale
Procedure, shortened: as §1

sorghum [2] = assay: as above; format: in vivo, Sorghum bicolor; settings: 0 to 10 scale
Procedure, shortened: as §1

bedstraw = assay: as above; format: in vivo, Galium aparine; settings: 0 to 10 scale
Procedure, shortened: as §1

wild oat [3] = assay: as above; format: in vivo, Avena fatua; settings: 0 to 10 scale
Procedure, shortened: as §1

ryegrass = assay: Test C preemergence/postemergence greenhouse plant response rating 0 to 100; format: in vivo, Lolium multiflorum; settings: POSTEMERGENCE; for Plant response rating Ryegrass: 0 to 100 scale
Procedure, shortened: as §2

sugar beet = assay: Test B preemergence/postemergence greenhouse plant response rating 0 to 10; format: in vivo, Beta vulgaris; settings: 0 to 10 scale
Procedure, shortened: as §1

barley = assay: as above; format: in vivo, Hordeum vulgare; settings: 0 to 10 scale
Procedure, shortened: as §1

wheat [4] = assay: Test C preemergence/postemergence greenhouse plant response rating 0 to 100; format: in vivo, Triticum aestivum; settings: POSTEMERGENCE; for Plant response rating, Wheat: 0 to 100 scale
Procedure, shortened: as §2

blackgrass = assay: Test B preemergence/postemergence greenhouse plant response rating 0 to 10; format: in vivo, Alopecurus myosuroides; settings: 0 to 10 scale
Procedure, shortened: as §1

downy brome = assay: Test C preemergence/postemergence greenhouse plant response rating 0 to 100; format: in vivo, Bromus tectorum; settings: POSTEMERGENCE; for Plant response rating Downy Brome: 0 to 100 scale
Procedure, shortened: as §2

wild oat [5] = assay: as above; format: in vivo, Avena fatua; settings: POSTEMERGENCE; for Plant response rating, Wild oat: 0 to 100 scale
Procedure, shortened: as §2

wild buckwheat = assay: as above; format: in vivo, Polygonum convolvulus; settings: POSTEMERGENCE; for Plant response rating, Wild buckwheat: 0 to 100 scale
Procedure, shortened: as §2

wheat [6] = assay: Test B preemergence/postemergence greenhouse plant response rating 0 to 10; format: in vivo, Triticum aestivum; settings: 0 to 10 scale
Procedure, shortened: as §1

rape = assay: Test C preemergence/postemergence greenhouse plant response rating 0 to 100; format: in vivo, Brassica napus; settings: POSTEMERGENCE; for Plant response rating, Rape: 0 to 100 scale
Procedure, shortened: as §2

crabgrass = assay: as above; format: in vivo, Digitaria sanguinalis; settings: POSTEMERGENCE; for Plant response rating, Crabgrass: 0 to 100 scale
Procedure, shortened: as §2

C#CC(C)Oc1cc(-c2nn3c(c2Cl)CCCC3)c(F)cc1Cl (stereo not shown) [Compound 36]
Plant response rating, Lambsquarter (lambsquarters; POSTEMERGENCE, Rate 50 g/ha): 10 | Plant response rating, Lambsquarter (lambsquarters; PREEMERGENCE, Rate 50 g/ha): 10 | Plant response rating, Lambsquarter (lambsquarters; Rate 200 g/ha, POSTEMERGENCE): 10 | Plant response rating, Lambsquarter (lambsquarters; Rate 200 g/ha, PREEMERGENCE): 10 | Plant response rating, Sorghum (sorghum [1]; 62 g/ha): 60 | Plant response rating, Sorghum (sorghum [1]; 125 g/ha): 70 | Plant response rating (0 to 100), Sorghum (sorghum [1]; Rate 16 g/ha): 40 | Plant response rating (0 to 100), Sorghum (sorghum [1]; Rate 31 g/ha): 50 | Plant response rating (0 to 100), Barnyardgrass (barnyardgrass; Rate 16 g/ha): 100 | Plant response rating (0 to 100), Barnyardgrass (barnyardgrass; Rate 31 g/ha): 100 | Plant response rating, Barnyardgrass (barnyardgrass; 62 g/ha): 100 | Plant response rating, Barnyardgrass (barnyardgrass; 125 g/ha): 100 | Plant response rating, Cotton (cotton; POSTEMERGENCE, Rate 50 g/ha): 9 | Plant response rating, Cotton (cotton; POSTEMERGENCE, Rate 200 g/ha): 10 | Plant response rating, Cotton (cotton; PREEMERGENCE, Rate 50 g/ha): 4 | Plant response rating, Cotton (cotton; Rate 200 g/ha, PREEMERGENCE): 6 | Plant response rating, Sorghum (sorghum [2]; POSTEMERGENCE, Rate 50 g/ha): 5 | Plant response rating, Sorghum (sorghum [2]; PREEMERGENCE, Rate 50 g/ha): 0 | Plant response rating, Sorghum (sorghum [2]; Rate 200 g/ha, POSTEMERGENCE): 6 | Plant response rating, Sorghum (sorghum [2]; Rate 200 g/ha, PREEMERGENCE): 1 | Plant response rating, Bedstraw (bedstraw; POSTEMERGENCE, Rate 50 g/ha): 10 | Plant response rating, Bedstraw (bedstraw; POSTEMERGENCE, Rate 200 g/ha): 10 | Plant response rating, Bedstraw (bedstraw; PREEMERGENCE, Rate 50 g/ha): 10 | Plant response rating, Wild oat (wild oat [3]; POSTEMERGENCE, Rate 50 g/ha): 5 | Plant response rating, Wild oat (wild oat [3]; PREEMERGENCE, Rate 50 g/ha): 3 | Plant response rating, Wild oat (wild oat [3]; Rate 200 g/ha, POSTEMERGENCE): 6 | Plant response rating Ryegrass (ryegrass; 62 g/ha): 30 | Plant response rating Ryegrass (ryegrass; 125 g/ha): 50 | Plant response rating (0 to 100), Ryegrass (ryegrass; Rate 16 g/ha): 20 | Plant response rating (0 to 100), Ryegrass (ryegrass; Rate 31 g/ha): 30 | Plant response rating, Sugar beet (sugar beet; POSTEMERGENCE, Rate 50 g/ha): 10 | Plant response rating, Sugar beet (sugar beet; PREEMERGENCE, Rate 50 g/ha): 9 | Plant response rating, Sugar beet (sugar beet; Rate 200 g/ha, POSTEMERGENCE): 10 | Plant response rating, Sugar beet (sugar beet; Rate 200 g/ha, PREEMERGENCE): 9 | Plant response rating, Barley (barley; POSTEMERGENCE, Rate 50 g/ha): 5 | Plant response rating, Barley (barley; POSTEMERGENCE, Rate 200 g/ha): 6 | Plant response rating, Barley (barley; PREEMERGENCE, Rate 50 g/ha): 0 | Plant response rating, Barley (barley; Rate 200 g/ha, PREEMERGENCE): 2 | Plant response rating, Wheat (wheat [4]; 62 g/ha): 50 | Plant response rating, Wheat (wheat [4]; 125 g/ha): 50 | Plant response rating (0 to 100), Wheat (wheat [4]; Rate 16 g/ha): 20 | Plant response rating (0 to 100), Wheat (wheat [4]; Rate 31 g/ha): 30 | Plant response rating, Blackgrass (blackgrass; POSTEMERGENCE, Rate 50 g/ha): 5 | Plant response rating, Blackgrass (blackgrass; POSTEMERGENCE, Rate 200 g/ha): 7 | Plant response rating, Blackgrass (blackgrass; PREEMERGENCE, Rate 50 g/ha): 4 | Plant response rating, Blackgrass (blackgrass; Rate 200 g/ha, PREEMERGENCE): 10 | Plant response rating Downy Brome (downy brome; 62 g/ha): 40 | Plant response rating Downy Brome (downy brome; 125 g/ha): 50 | Plant response rating (0 to 100), Downy Brome (downy brome; Rate 16 g/ha): 20 | Plant response rating (0 to 100), Downy Brome (downy brome; Rate 31 g/ha): 30 | Plant response rating, Wild oat (wild oat [5]; 62 g/ha): 30 | Plant response rating, Wild oat (wild oat [5]; 125 g/ha): 50 | Plant response rating (0 to 100), Wild oat (wild oat [5]; Rate 16 g/ha): 10 | Plant response rating (0 to 100), Wild oat (wild oat [5]; Rate 31 g/ha): 20 | Plant response rating, Wild buckwheat (wild buckwheat; 62 g/ha): 100 | Plant response rating, Wild buckwheat (wild buckwheat; 125 g/ha): 100 | Plant response rating (0 to 100), Wild buckwheat (wild buckwheat; Rate 16 g/ha): 70 | Plant response rating (0 to 100), Wild buckwheat (wild buckwheat; Rate 31 g/ha): 70 | Plant response rating, Wheat (wheat [6]; POSTEMERGENCE, Rate 50 g/ha): 5 | Plant response rating, Wheat (wheat [6]; PREEMERGENCE, Rate 50 g/ha): 5 | Plant response rating, Wheat (wheat [6]; Rate 200 g/ha, POSTEMERGENCE): 6 | Plant response rating, Wheat (wheat [6]; Rate 200 g/ha, PREEMERGENCE): 5 | Plant response rating, Rape (rape; 62 g/ha): 100 | Plant response rating, Rape (rape; 125 g/ha): 100 | Plant response rating (0 to 100), Rape (rape; Rate 16 g/ha): 85 | Plant response rating (0 to 100), Rape (rape; Rate 31 g/ha): 90 | Plant response rating, Crabgrass (crabgrass; 62 g/ha): 50 | Plant response rating, Crabgrass (crabgrass; 125 g/ha): 60 | Plant response rating (0 to 100), Crabgrass (crabgrass; Rate 16 g/ha): 20 | Plant response rating (0 to 100), Crabgrass (crabgrass; Rate 31 g/ha): 30
